Assay results reported in paper PMC6389896 (Communications Biology, 2019).
Where “and” joins values, the source holds several entries; their conditions need not be identical. Equal values may be shown once.

Key:
human esRAGE = human esRAGE (Homo sapiens, UniProt Q15109); experiment: Surface plasmon resonance (BIAcore) of oxytocin binding to immobilised esRAGE; conditions: SPR BIAcore 2000, immobilised recombinant human esRAGE (~5000 RU), 10 mM HEPES pH 7.4, 0.15 M NaCl, 25 °C; read-out: apparent dissociation constant (KD)
Method: Isolated human esRAGE was immobilised to BIAcore CM5 research grade sensor chips with the amine coupling kit to a density of ~5000 response units (RU)[27],[32],[41]. […] The sensor chips were regenerated with 10 mM NaOH and 0.5% SDS (W/V).

[1] = Oxytocin in CSF from the cisterna magna after administration, EIA; format: in vivo, mouse; conditions: for CSF OT: individual animals, listed as OT
Method: CSF was collected according to the protocol for sampling CSF from mice without detectable plasma contamination[77],[78]. Under ketamine anaesthesia (100 mg/kg intraperitoneally), the occipital skull was exposed, and the dura mater of the cisterna magna appeared as a glistening and clear reverse triangle through which the medulla oblongata, a major blood vessel (arteria dorsalis spinalis), and CSF space were visible. A capillary tube was inserted into the cisterna magna through the dura mater, blood-free CSF samples were collected with a 32G needle and immediately frozen with dry ice prior to storage at −80 °C. After CSF collections, blood samples were obtained by cardiac puncture from the mice under continuous ketamine anaesthesia.
The CSF samples (5 μl) were thawed and diluted 1:20 in assay buffer. CSF samples were assayed without protein extraction due to the low protein concentration in the CSF. […] The inter-assay and intra-assay coefficients of variation were less than 15%.

[2] = human or primate CSF, mammalian hippocampus and amygdala; cited from earlier work

human esRAGE, sequence (Q15109 23-347 isoform Q15109-3 limits assumed): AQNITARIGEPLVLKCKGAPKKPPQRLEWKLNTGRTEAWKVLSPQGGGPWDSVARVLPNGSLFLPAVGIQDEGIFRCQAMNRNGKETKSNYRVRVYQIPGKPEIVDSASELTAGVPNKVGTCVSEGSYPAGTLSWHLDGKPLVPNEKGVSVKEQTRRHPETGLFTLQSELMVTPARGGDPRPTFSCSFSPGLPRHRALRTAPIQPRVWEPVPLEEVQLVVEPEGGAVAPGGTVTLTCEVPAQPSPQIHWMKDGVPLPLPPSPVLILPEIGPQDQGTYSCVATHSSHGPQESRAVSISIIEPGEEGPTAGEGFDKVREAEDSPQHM

CC[C@H](C)[C@@H]1NC(=O)[C@H](Cc2ccc(O)cc2)NC(=O)[C@@H](N)CSSC[C@@H](C(=O)N2CCC[C@H]2C(=O)N[C@@H](CC(C)C)C(=O)NCC(N)=O)NC(=O)[C@H](CC(N)=O)NC(=O)[C@H](CCC(N)=O)NC1=O [oxytocin, Oxytocin]
Kd (human esRAGE): 179 nM | CSF OT ([1]; KO (Ager-/-) mice, 60 min after sc oxytocin): 1.096% and 1.022% and 1.298% and 0.875% and 0.8155% and 0.9128% and 1.16% and 0.679% and 1.176% and 1.081% and 0.9794% and 0.8625% | CSF OT ([1]; KO+Tg mice, 60 min after sc oxytocin): 1.051% and 1.1275% and 0.9794% and 1.244% and 1.354% and 2.625% | CSF OT ([1]; WT+Tg (endothelial human RAGE) mice, 60 min after sc oxytocin): 1.066% and 1.83% and 1.926% and 1.872% | CSF OT ([1]; female Ager-/- mice, 60 min after sc OT): 110.13% and 105.01% and 103.76% and 85.23% and 99.81% and 68.15% | CSF OT ([1]; female WT mice, 60 min after sc OT): 169.21% and 199.15% and 65.08% and 204.46% and 219.88% and 175.37% and 233.36% and 183.92% and 188.35% | oxytocin concentrations in the CSF of Ager-/- mice after injection ([1]; sc 30 ng/mouse, Ager-/- mice): remained at baseline levels | time of maxima of oxytocin in CSF from the cisterna magna ([1]; sc 30 ng/mouse, WT mice): 1 to 2 h | time of return of CSF oxytocin to baseline ([1]; sc 30 ng/mouse, WT mice): 4 h | time of maximal oxytocin concentrations after peripheral administration [2]: 10 to 60 min
